Values quoted from earlier work, collected in patent US20100135914A1, “AZEOTROPIC FUMIGANT COMPOSITIONS AND METHODS OF CONTROLLING PESTS” (priority 2008, published 2010).

Experiments:
[1] = system: eggs of many moths and beetles; settings: exposures of up to three days
[2] = system: post-embryonic stages of insects; settings: in vivo

Row | Structure (SMILES) | concentration for complete kill of the egg stage [1] | toxicity to post-embryonic stages of insects [2] | dosage level toxic to maize weevil eggs (maize weevil; eggs, over 6 hours) | toxicity to life stages of the maize weevil (maize weevil; relatively short exposure periods and low temperatures)
1 | O=S(=O)(F)F [Sulfuryl fluoride] | over 50 mg/L | highly toxic | – | –
2 | CI [Methyl iodide] | – | – | 2.16 mg/L | toxic to all life stages
